# Data: patent US20230130144A1, “PHARMACEUTICAL COMBINATION AND USE THEREOF” (NATURAL MEDICINE INSTITUTE OF ZHEJIANG YANGSHENGTANG CO., …, priority 2020, published 2023)
# Where “and” joins values, the source holds several entries; their conditions need not be identical. Equal values may be shown once. Read-outs that look alike come from different tables or passages of the source.
# Key:
# Format in all cases: cell-based
# [1] = system: HOS human osteosarcoma cells; test: Cell count (Trypan Blue) viability, drug combination administration, HOS cells; conditions: 24 h, read-out: cell viability
# Description: HEK293 cells, HOS human osteosarcoma cells and 143B human osteosarcoma cells were subcultured in an incubator at 37° C., 5% CO2 using a RPMI-1640 medium containing 10% fetal bovine serum (FBS).
# (§1) 10 μL was taken for counting.
# (3) After counting, the cells were diluted to 1×10^5 cells/ml.
# (§2) (5) After 24 h of dosing, the medium was discarded. […] The cells were digested for 5 min.
# [2] = system: 143B human osteosarcoma cells; test: Cell count (Trypan Blue) viability, drug combination administration, 143B cells; conditions: 24 h; for viability at 20 µM / viability at 50 µM / viability at 10 µM: Homo sapiens, read-out: cell viability
# Description: as §1, §2
# DB lymphoma cells = test: Cell viability of lymphoma cells by the method of Example 1; conditions: Homo sapiens
# Description: (§3) (6) After digestion, equivalent amounts of PBS were added into each well and mixed uniformly. Then, 10 μL/well of Trypan Blue solution was added and mixed uniformly. 10 μL of the well-mixed solution was taken and counted. In accordance with “Cell viability=Cell Count of Test Group/Cell Count of Control Group×100%”, the cell viability of various groups was calculated.
# For example, as for the DB lymphoma cells, the control group involves adding the solvent DMSO alone, the Vc group involves adding 2 mM of ascorbic acid, the low-dose Nic group involves adding 1 μM of Niclosamide, the low-dose Nic+Vc group involves adding 1 μM of Niclosamide and 2 mM of ascorbic acid, the high-dose Nic group involves adding 2 μM of Niclosamide, and the high-dose Nic+Vc group involves adding 2 μM of Niclosamide and 2 mM of ascorbic acid.
# MC38 colon cancer cells = test: Cell viability of colon cancer cells by the method of Example 1; conditions: Mus musculus
# Description: as §3
# For example, as for MC38 colon cancer cells, the control group involves adding the solvent DMSO alone, the Nic group involves adding 1 μM of Niclosamide, the Vc group involves adding 0.5 mM of ascorbic acid, the Nic+Vc group involves adding 1 μM of Niclosamide and 0.5 mM of ascorbic acid.
smiles,measurement,setting,value
Cn1c(=O)c2c(ncn2CC(=O)Nc2ccc(-c3ccccc3)nn2)n(C)c1=O [ETC-159],viability at 20 µM,[1]; HOS,67%
same,viability at 20 µM,[2]; 143B,60%
Cc1cc(-c2ncc(CC(=O)Nc3ccc(-c4cnccn4)cn3)cc2C)ccn1 [LGK974],viability at 20 µM,[1]; HOS,67%
same,viability at 20 µM,[2]; 143B,64%
O=C(O)CC[C@H]1CC[C@@](c2cc(F)ccc2F)(S(=O)(=O)c2ccc(Cl)cc2)CC1 [MK0752],viability at 20 µM,[1]; HOS,67%
same,viability at 20 µM,[2]; 143B,62%
O=C(Nc1ccc([N+](=O)[O-])cc1Cl)c1cc(Cl)ccc1O [Niclosamide],viability at 1 µM,DB lymphoma cells; 1 μM Niclosamide alone (low-dose),57%
same,viability at 2 µM,DB lymphoma cells; 2 μM Niclosamide alone (high-dose),52%
same,viability at 1 µM,"MC38 colon cancer cells; MC-38, 1 μM Niclosamide alone",82%
same,viability at 50 µM,[1]; HOS,56%
same,viability at 50 µM,[2]; 143B,59%
CC(C)(C(=O)NCC(F)(F)C(F)(F)F)C(=O)N[C@@H]1C(=O)Nc2ccccc2-c2ccccc21 [RO4929097],viability at 10 µM,[1]; HOS,56%
same,viability at 10 µM,[2]; 143B,58%
Cc1c(C(=O)Nc2ccc(N3C[C@@H](C)O[C@@H](C)C3)nc2)cccc1-c1ccc(OC(F)(F)F)cc1 [Sonidegib],viability at 10 µM,[1]; HOS,89%
same,viability at 10 µM,[2]; 143B,74%
CC1=C(CC(=O)O)c2cc(F)ccc2/C1=C\c1ccc([S+](C)[O-])cc1 (centres unmarked) [Sulindac],viability at 50 µM,[1]; HOS,92%
CS(=O)(=O)c1ccc(C(=O)Nc2ccc(Cl)c(-c3ccccn3)c2)c(Cl)c1 [Vismodegib],viability at 50 µM,"[1]; HOS cells, single drug 50 μM",53%
same,viability at 50 µM,"[2]; 143B cells, single drug 50 μM",60%
O=C1O[C@H]([C@@H](O)CO)C(O)=C1O [ascorbic acid],viability at 2000 µM,DB lymphoma cells; 2 mM ascorbic acid alone,76%
same,viability at 500 µM,"MC38 colon cancer cells; MC-38, 0.5 mM ascorbic acid alone",105%
COc1ccc2cc3[n+](cc2c1OC)CCc1cc2c(cc1-3)OCO2 [berberine],viability at 20 µM,[1]; HOS,82%
same,viability at 20 µM,[2]; 143B,94%
O=C1O[C@H]([C@@H](O)CO)C([O-])=C1O.[Na+] [sodium ascorbate],cell viability,"[2]; 143B cells, 0.5 mM sodium ascorbate alone",106% and 90% and 83% and 77% and 80% and 81% and 82%
